Columns and labels:
human TLR7 = biological target: T1, human TLR7 (Homo sapiens, UniProt Q9NYK1); assay: TLR7 cellular reporter assay (HEK293 TLR7-NFκB-luc); type: cell-based; conditions: lowest effective concentration; HEK293 transiently transfected with TLR7 and NFκB-luc; 6 hours incubation
T1 construct: expressed in transfected cells; host or cells: HEK293
T1 sequence (Q9NYK1 27-1049): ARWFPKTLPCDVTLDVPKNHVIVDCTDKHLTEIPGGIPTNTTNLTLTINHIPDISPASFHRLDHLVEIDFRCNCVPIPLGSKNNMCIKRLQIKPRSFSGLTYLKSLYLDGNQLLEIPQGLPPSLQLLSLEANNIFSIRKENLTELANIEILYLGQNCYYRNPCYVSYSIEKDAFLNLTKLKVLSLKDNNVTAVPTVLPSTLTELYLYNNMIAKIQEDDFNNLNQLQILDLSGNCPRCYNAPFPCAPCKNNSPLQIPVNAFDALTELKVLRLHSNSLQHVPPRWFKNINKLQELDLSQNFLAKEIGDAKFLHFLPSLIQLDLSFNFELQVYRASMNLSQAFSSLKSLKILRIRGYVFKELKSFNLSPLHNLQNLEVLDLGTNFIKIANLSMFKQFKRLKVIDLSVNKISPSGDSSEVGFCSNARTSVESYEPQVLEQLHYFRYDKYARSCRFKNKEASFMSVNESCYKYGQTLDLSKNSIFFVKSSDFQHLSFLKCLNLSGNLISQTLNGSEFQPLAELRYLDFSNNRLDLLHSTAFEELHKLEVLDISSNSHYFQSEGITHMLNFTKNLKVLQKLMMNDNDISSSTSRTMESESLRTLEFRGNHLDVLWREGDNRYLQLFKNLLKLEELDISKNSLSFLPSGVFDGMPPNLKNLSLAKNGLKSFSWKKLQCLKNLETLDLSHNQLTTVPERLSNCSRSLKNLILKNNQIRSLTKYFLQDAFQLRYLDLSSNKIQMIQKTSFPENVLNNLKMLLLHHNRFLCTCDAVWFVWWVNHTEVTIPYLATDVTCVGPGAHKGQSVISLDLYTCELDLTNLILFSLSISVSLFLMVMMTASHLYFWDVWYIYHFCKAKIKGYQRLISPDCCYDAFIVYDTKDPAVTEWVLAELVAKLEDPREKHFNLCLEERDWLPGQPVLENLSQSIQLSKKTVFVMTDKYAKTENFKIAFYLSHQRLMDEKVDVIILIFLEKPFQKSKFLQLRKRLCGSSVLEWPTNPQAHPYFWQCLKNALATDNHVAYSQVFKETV
Method: The ability of compounds to activate human TLR7 and TLR8 was assessed in a cellular reporter assay using HEK293 cells transiently transfected with a TLR7 or TLR8 expression vector and NFκB-luc reporter construct. Briefly, HEK293 cells were grown in culture medium (DMEM supplemented with 10% FCS and 2 mM Glutamine). For transfection of cells in 10 cm dishes, cells were detached with Trypsin-EDTA, transfected with a mix of CMV-TLR7 or TLR8 plasmid (750 ng), NFκB-luc plasmid (375 ng) and a transfection reagent and incubated 48 hours at 37° C. in a humidified 5% CO2 atmosphere. Transfected cells were then detached with Trypsin-EDTA, washed in PBS and resuspended in medium to a density of 1.67×10^5 cells/mL. Thirty microliters of cells were then dispensed into each well in 384-well plates, where 10 μL of compound in 4% DMSO was already present. Following 6 hours incubation at 37° C., 5% CO2, the luciferase activity was determined by adding 15 μl of Steady Lite Plus substrate (Perkin Elmer) to each well and readout performed on a ViewLux ultraHTS microplate imager (Perkin Elmer). Dose response curves were generated from measurements performed in quadruplicates. Lowest effective concentrations (LEC) values, defined as the concentration that induces an effect which is at least two fold above the standard deviation of the assay, were determined for each compound.

[1] = system: interferon production in human PBMC; assay: Interferon production in human PBMC, read out on HEK-ISRE-luc reporter cells; type: cell-based; conditions: lowest effective concentration, PBMC supernatant after overnight incubation transferred to HEK-ISRE-luc cells; for minimal effective concentration: Homo sapiens, PBMC, 24 h, read-out: PBMC HEK-ISRE-luc (LEC; μM); for PBMC HEK-ISRE-luc (LEC; μM): 24 hours
Method: Activation of human TLR7 results in robust production of interferon by plasmacytoid dendritic cells present in human blood. The potential of compounds to induce interferon was evaluated by determination of interferon in the conditioned media from peripheral blood mononuclear cells (PBMC). The presence of interferon in the samples was determined, using an interferon reporter cell line stably expressing an interferon-stimulated responsive elements (ISRE)-luc reporter construct. The ISRE element with sequence GAAACTGAAACT (SEQ ID: 1) is highly responsive to the STAT1-STAT2-IRF9 transcription factor, which becomes activated upon binding of IFN-I to the IFN receptor. Briefly, PBMCs were prepared from buffy coats of at least two donors using a standard Ficoll centrifugation protocol. Isolated PBMCs were resuspended in RPMI medium supplemented with 10% human AB serum and 2×10^5 cells/well were dispensed into 384-well plates containing compounds (70 μL total volume). After overnight incubation of the PBMCs with the compounds, 10 μL of supernatant was transferred to 384-well plates containing 5×10^3 HEK-ISRE-luc cells/well in 30 μL (plated the day before). Following 24 hours of incubation, activation of the ISRE elements was measured by assaying luciferase activity using 40 μL/well Steady Lite Plus substrate (Perkin Elmer) and measured with ViewLux ultraHTS microplate imager (Perkin Elmer). The stimulating activity of each compound on the HEK-ISRE-luc cells was reported as LEC. The LEC in turn indicates the degree of ISRE activation on transfer of a defined amount of PBMC culture medium. Recombinant interferon alfa-2a (Roferon-A) was used as a standard control compound.

| SMILES | HEK293 TLR7-NFκB-luc (LEC; μM) (human TLR7) [µM] | minimal effective concentration [1] [µM] | PBMC HEK-ISRE-luc (LEC; μM) [1] [µM] |
| --- | --- | --- | --- |
| Nc1nc2nc3c1nc(O)n3Cc1ccc(cc1)OC/C=C/CCCO2 [Compound 81] | 4.59 | 0.63 |  |
| COc1ccc2cc1Cn1c(O)nc3c(N)nc(nc31)OC/C=C/CO2 [Compound 63] | 0.12 | 0.031 |  |
| Nc1nc2nc3c1nc(O)n3Cc1cc(ccn1)OC/C=C\CCO2 [Compound 37] | 0.8 | 0.12 |  |
| Nc1nc2nc3c1nc(O)n3Cc1cccc(c1)C/C=C/CCCn1ccnc1-2 [Compound 3] | 1.05 | 0.14 |  |
| Nc1nc2nc3c1nc(O)n3Cc1cccc(c1)C/C=C/CCN2 [Compound 29] | 0.81 | 0.15 |  |
| Nc1nc2nc3c1nc(O)n3Cc1cccc(c1)OC/C=C\CO2 [Compound 22] | 0.12 | 0.054 |  |
| COc1ccc2cc1Cn1c(O)nc3c(N)nc(nc31)OCCCCO2 [Compound 70] | 0.15 | 0.04 |  |
| Nc1nc2nc3c1nc(O)n3Cc1ccc(nc1)OCC(=O)NCCCO2 [Compound 6] | >10 | 1.73 |  |
| Nc1nc2nc3c1nc(O)n3Cc1cccc(c1)C/C=C\CCO2 [Compound 17] | 0.067 |  | 0.013 |
| Nc1nc2nc3c1nc(O)n3Cc1ccc(cc1)C/C=C\CCCCO2 [Compound 36] | 12.45 | 0.68 |  |
| Nc1nc2nc3c1nc(O)n3Cc1ccccc1OCCCCO2 [Compound 76] | 0.12 | 0.064 |  |
| Nc1nc2nc3c1nc(O)n3Cc1cccc(c1)CCCCCN2 [Compound 31] | 1.36 | 0.263 |  |
| Nc1nc2nc3c1nc(O)n3Cc1cccc(c1)C/C=C/CCO2 [Compound 15] | 0.12 | 0.016 |  |
| COc1ccc2cc1Cn1c(O)nc3c(N)nc(nc31)OC/C=C\CO2 [Compound 74] | 0.1 | 0.044 |  |
| Nc1nc2nc3c1nc(O)n3Cc1cccc(=O)n1CCCCN2 [Compound 35] | 1.68 | 0.41 |  |
| Nc1nc2nc3c1nc(O)n3Cc1cccc(c1)OCCCCN2 [Compound 8] | 2.42 | 0.68 |  |
| COc1ccc2cc1OC/C=C\COc1nc(N)c3nc(O)n(c3n1)C2 [Compound 57] | 0.08 | 0.021 |  |

| SMILES | HEK293 TLR7-NFκB-luc (LEC; μM) (human TLR7) [µM] | minimal effective concentration [1] [µM] | PBMC HEK-ISRE-luc (LEC; μM) [1] [µM] |
| --- | --- | --- | --- |
| COc1c2cccc1OCCCCOc1nc(N)c3nc(O)n(c3n1)C2 [Compound 59] | 4.41 | 1.92 |  |
| Nc1nc2nc3c1nc(O)n3Cc1cccc(c1)C/C=C\CCO2 [Compound 1] | 0.154 |  | 0.081 |
| Nc1nc2nc3c1nc(O)n3CCc1cccc(c1)CCCCCO2 [Compound 83] | >25 | 2.66 |  |
| Nc1nc2nc3c1nc(O)n3Cc1cccc(c1)OCC/C=C\CO2 [Compound 20] | 0.74 | 0.15 |  |
| Nc1nc2nc3c1nc(O)n3Cc1cccc(c1)OCCCCCC(CO)N2 (centres unmarked) [Compound 19] | 2.24 | 0.14 |  |
| COc1ccc2cc1Cn1c(O)nc3c(N)nc(nc31)OCC/C=C\C2 [Compound 72] | 0.018 | 0.0029 |  |
| Nc1nc2nc3c1nc(O)n3Cc1cccc(c1)C/C=C/CCCN2 [Compound 28] | 0.77 | 0.26 |  |
| Nc1nc2nc3c1nc(O)n3Cc1ncccc1/C=C\CCCCO2 [Compound 42] | 2.28 | 0.5 |  |
| Nc1nc2nc3c1nc(O)n3Cc1cccc(c1)OCCOCCO2 [Compound 12] | 0.39 | 0.043 |  |
| COc1c2cccc1OC/C=C\COc1nc(N)c3nc(O)n(c3n1)C2 [Compound 62] | 7.26 | 2.03 |  |
| CN1CCOC(=O)Cc2cccc(c2)Cn2c(O)nc3c(N)nc1nc32 [Compound 85] | 0.33 | 12.5 |  |
| Nc1nc2nc3c1nc(O)n3Cc1cccc(n1)OC/C=C/CCCO2 [Compound 49] | 0.21 | 0.16 |  |
| Nc1nc2nc3c1nc(O)n3CCc1cccc(c1)OC/C=C/CCO2 [Compound 86] | 7.91 | 2.43 |  |
| Nc1nc2nc3c1ncn3Cc1cccc(c1)C/C=C\CCO2 [Compound 52] | 7.96 | 4.8 |  |
| Nc1nc2nc3c1nc(O)n3Cc1cccc(n1)OCC(=O)NCCCO2 [Compound 9] | 0.30 | 0.098 |  |
| Nc1nc2nc3c1nc(O)n3Cc1cccc(c1)OCC/C=C/CO2 [Compound 21] | 0.3 | 0.05 |  |
| Nc1nc2nc3c1nc(O)n3Cc1cccc(c1)C/C=C/CCCCO2 [Compound 34] | 9.81 | 0.032 |  |

From US10822349B2, “Macrocyclic purines for the treatment of viral infections” (JANSSEN SCIENCES IRELAND UNLIMITED COMPANY, priority 2012, dated 2020)
